Reference: PubChem BioAssay (NCI)
Where “and” joins values, the source holds several entries; their conditions need not be identical. Identical values can stand only once.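 These data come from cells grown in 96-well plates and exposed to compound for 48 hours at five concentrations. GI50 = concentration required for 50% inhibition of growth. TGI: concentration producing complete growth inhibition.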

Tests used:
Test in all cases: NCI tumour cell line growth inhibition, 48 h
[1] = test system: TK-10 renal
[2] = test system: NCI-H460 lung
[3] = test system: A549 NSCLC
[4] = test system: KM20L2 colon
[5] = test system: NCI-H522 lung
[6] = test system: DMS 114 small cell lung
[7] = test system: LOX IMVI melanoma
[8] = test system: SF-295 CNS
[9] = test system: BT-549 breast
[10] = test system: MCF7 breast
[11] = test system: DLD-1 colon
[12] = test system: LXFL 529 NSCLC

| SMILES | TGI [1] | TGI [2] | TGI [3] | TGI [4] | TGI [5] | TGI [6] | TGI [7] | TGI [8] | GI50 [9] | TGI [9] | GI50 [1] | GI50 [2] | GI50 [3] | GI50 [5] | GI50 [10] | TGI [10] | GI50 [7] | GI50 [8] | TGI [11] | TGI [12] |
| --- | --- | --- | --- | --- | --- | --- | --- | --- | --- | --- | --- | --- | --- | --- | --- | --- | --- | --- | --- | --- |
| ClC1c2ccccc2C2(c3ccccc3)OOC1(c1ccccc1)O2 (stereo not drawn) | 4.4 µM | 3.13 µM | 3.64 µM | 3.26 µM | 0.8 µM | 725 nM | 1.31 µM | 5.85 µM | – | – | – | – | – | – | – | – | – | – | – | – |
| CC(=O)Nc1ccc(-c2csc(Nc3cccc(-c4csc(-c5ccccc5)n4)c3)n2)cc1 | > 50 µM | > 50 µM | > 50 µM | – | > 50 µM | – | 18.1 µM | > 50 µM | 22500 nM | > 50 µM | 19.7 µM | 18800 nM | 15300 nM | 24200 nM | 20000 nM | > 50 µM | 7710 nM | 14700 nM | – | – |
| O=C1CCSC(=S)N1c1ccc(Br)c(Cl)c1 | 78.2 µM | 62.5 µM | > 100 µM | – | 42.6 µM | – | 50.4 µM | 73.1 µM | – | 41.1 µM | – | – | – | – | – | 48.6 µM | – | – | – | – |
| NC(=O)c1sc(-n2cnc3ccc(C(F)(F)F)cc32)cc1OCc1ccccc1Br | > 25 µM | > 15.4 µM | > 25 µM | – | 5.71 µM | – | > 25 µM | > 23.4 µM | 3210 nM | > 25 µM | 7.81 µM | 946 nM | 1570 nM | 793 nM | 805 nM | > 6.28 µM | 1500 nM | 1720 nM | – | – |
| CCOC(=O)Cn1c(-c2nonc2NC(=O)c2ccccc2F)nc2ccccc21 | > 82.7 µM | > 100 µM | > 56.7 µM | – | > 78.9 µM | – | > 100 µM | > 55.2 µM | 5910 nM | > 93.7 µM | 19.2 µM | 579 nM | 768 nM | 12700 nM | 1640 nM | > 100 µM | 309 nM | 2770 nM | – | – |
| Cc1ccc2nc3c(n2c1)C(=O)C(=O)c1ccccc1-3 | 2.9 µM | 0.718 µM | 0.62 µM | – | 0.538 µM | – | 0.276 µM | 0.937 µM | 168 nM | 0.307 µM | 1.28 µM | 173 nM | 199 nM | 216 nM | 140 nM | 0.308 µM | 132 nM | 287 nM | – | – |
| Cc1ccc(/C=C/C(=O)c2ccc([N+](=O)[O-])cc2)cc1 | > 100 µM | > 100 µM | > 100 µM | > 100 µM | > 100 µM | – | > 100 µM | > 100 µM | – | – | – | – | – | – | – | – | – | – | > 100 µM | > 100 µM |
| CCCCCCCCCCC[C@@H](C[C@H]1OC(=O)[C@H]1CCCCCC)OC(=O)[C@@H](CC(C)C)NC=O | > 100 µM | 21.1 µM | > 100 µM | – | 26.4 µM | – | 9.6 µM | 10.6 µM | 1900 nM | 15.9 µM | 32.8 µM | 3630 nM | 13100 nM | 5560 nM | 3070 nM | 13.8 µM | 1650 nM | 2080 nM | – | – |
| O=C(Nc1ccc(Oc2ccc(NC(=O)Nc3ccc([N+](=O)[O-])cc3)cc2)cc1)Nc1ccc([N+](=O)[O-])cc1 | > 26.7 µM | 6.61 µM | > 78.8 µM | – | 4.32 µM | – | 10.7 µM | 17.9 µM | 2060 nM | 7.36 µM | 2.11 µM | 1740 nM | 2610 nM | 1030 nM | 1680 nM | 6.22 µM | 1780 nM | 1170 nM | – | – |
| C=C1CCC2C(C)(CO)C(O)CCC2(C)C1C/C=C1/CCOC1=O (stereo not drawn) | > 100 µM | > 100 µM | > 100 µM | > 100 µM | > 100 µM | – | > 100 µM | > 100 µM | – | – | – | – | – | – | – | – | – | – | > 100 µM | > 100 µM |
| c1ccc2cc(C[n+]3ccn(Cc4ccc5ccccc5n4)c3)ccc2c1 | 6.47 µM and 23.8 µM | 10.8 µM and 14.6 µM | 14.1 µM and 24.2 µM | – | – | – | 1.68 µM and 11.4 µM | 4.98 µM and 18.7 µM | 347 nM and 2540 nM | 1.51 µM and 8.46 µM | 1.71 µM and 10.4 µM | 456 nM and 3740 nM | – | 275 nM and 2300 nM | 353 nM and 2980 nM | 2.36 µM and 13.4 µM | 435 nM and 2900 nM | 710 nM and 4460 nM | – | – |
| O=C(CCN1CCCC1)Nc1ccc2c(NCCc3ccccc3)c3ccccc3nc2c1 | 2.96 µM | 1.05 µM | 1.7 µM | – | 1.27 µM | – | 1.22 µM | 1.53 µM | 1190 nM | 2.66 µM | 1.06 µM | 296 nM | 334 nM | 308 nM | 305 nM | 1.14 µM | 305 nM | 381 nM | – | – |
| O=S1c2ccccc2NC(c2ccc3ccccc3c2)CC1c1ccccc1 (stereo not drawn) | > 100 µM | 47.1 µM | > 100 µM | 48.9 µM | 42.4 µM | – | 33.7 µM | 55 µM | – | – | – | – | – | – | – | – | – | – | 70.1 µM | 30.5 µM |
| CC[C@H]1CN(C)[C@H]2Cc3c([nH]c4ccccc34)C(=O)C[C@H]1C2C(=O)OC (stereo partly drawn) | > 100 µM | > 100 µM | > 100 µM | – | > 100 µM | – | > 100 µM | > 100 µM | – | > 100 µM | – | – | – | – | – | > 100 µM | – | – | – | – |
| CCCCCCCCCCCC1=NC(C)(C)CN1CC(C)O (stereo not drawn) | 22.7 µM | 5.05 µM | 22.6 µM | – | 15.9 µM | – | 4.42 µM | 17.8 µM | 5930 nM | 22.2 µM | 10.3 µM | 2350 nM | 6830 nM | 3420 nM | 2050 nM | 4.77 µM | 1850 nM | 4360 nM | – | – |
| CCOC(=O)C(=O)Nc1ccccc1OCC | > 100 µM | > 100 µM | > 100 µM | – | > 100 µM | > 100000 nM | > 100 µM | > 100 µM | – | – | – | – | – | – | – | – | – | – | > 100 µM | > 100 µM |
| COc1ccc(/C=N\NC(=O)c2ccc3nc(-c4ccc(Cl)cc4)[nH]c3c2)cc1 | 6.59 µM | 3.59 µM | 5.65 µM | – | 81.5 µM | – | 4.01 µM | 5.05 µM | 3360 nM | 16.4 µM | 2.95 µM | 1830 nM | 2460 nM | 7600 nM | 1470 nM | 3.84 µM | 2190 nM | 2230 nM | – | – |
